# System: hepatocellular carcinoma cell line Hep3B
# Experiment: Growth inhibition of Hep3B cells, 48 hr treatment, Hoechst 33342 nucleus count (GE InCell 2200)
# Type: cell-based
# Details: Homo sapiens
# Procedure, shortened: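 Compound exposure lasted 48 hr at 37° C, 5% CO2. Surviving nuclei were counted after Hoechst 33342 staining, and survival was expressed as the treated/non-treated cell number ratio, including the ratio at 10 μM compound.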
# [1] = Table 5, ratio of number of tumor cells treated with 10 μM compound to non-treated cells
# [2] = Table 6, ratio of number of tumor cells treated with 10 μM compound to non-treated cells
Compound,viability at 10 µM [1],viability at 10 µM [2]
"CCc1ccc(-c2nc(NC(=O)c3ccc([N+](=O)[O-])s3)sc2Oc2ccc(C(C)(C)CC)cc2)cc1 [Compound 5-103, N-(4-(4-ethylphenyl)-5-(4-(tert-pentyl)phenoxy)thiazol-2-yl)-5-nitrothiophene-2-carboxamide]",33%,
"CCCCc1ccc(-c2nc(NC(=O)c3ccc([N+](=O)[O-])s3)sc2Oc2ccc(C(C)(C)CC)cc2)cc1 [Compound 5-104, N-(4-(4-butylphenyl)-5-(4-(tert-pentyl)phenoxy)thiazol-2-yl)-5-nitrothiophene-2-carboxamide]",56%,
"Cc1ccc(Oc2sc(NC(=O)c3ccc([N+](=O)[O-])s3)nc2-c2ccc(C(C)(C)C)cc2)cc1 [Compound 5-105, N-(4-(4-(tert-butyl)phenyl)-5-(p-tolyloxy)thiazol-2-yl)-5-nitrothiophene-2-carboxamide]",30%,
"CCCCOc1ccc(-c2nc(NC(=O)c3ccc([N+](=O)[O-])s3)sc2Oc2cc(C)cc(C)c2)cc1 [Compound 5-106, N-(4-(4-butoxyphenyl)-5-(3,5-dimethylphenoxy)thiazol-2-yl)-5-nitrothiophene-2-carboxamide]",29%,
"Cc1ccc(-c2nc(NC(=O)c3ccc([N+](=O)[O-])s3)sc2-c2cccc([N+](=O)[O-])c2)cc1 [Compound 6-3, 5-nitro-N-(5-(3-nitrophenyl)-4-(p-tolyl)thiazol-2-yl)thiophene-2-carboxamide]",,84%
"COc1ccc(-c2sc(NC(=O)c3ccc([N+](=O)[O-])s3)nc2-c2ccc(C)cc2)cc1OC [Compound 6-4, N-(5-(3,4-dimethoxyphenyl)-4-(p-tolyl)thiazol-2-yl)-5-nitrothiophene-2-carboxamide]",,64%
"Cc1ccc(-c2nc(NC(=O)c3ccc([N+](=O)[O-])s3)sc2-c2ccc(F)cc2)cc1 [Compound 6-6, N-(5-(4-fluorophenyl)-4-(p-tolyl)thiazol-2-yl)-5-nitrothiophene-2-carboxamide]",,48%
"O=C(Nc1nc(-c2ccc(Br)cc2)cs1)c1ccc([N+](=O)[O-])s1 [Compound 6-7, N-(4-(4-bromophenyl)thiazol-2-yl)-5-nitrothiophene-2-carboxamide]",,81%
"O=C(Nc1nc(-c2ccc(Br)cc2)c(-c2ccccc2)s1)c1ccc([N+](=O)[O-])s1 [Compound 6-9, N-(4-(4-bromophenyl)-5-phenylthiazol-2-yl)-5-nitrothiophene-2-carboxamide]",,71%
"O=C(Nc1nc(-c2ccc(Br)cc2)c(Br)s1)c1ccc([N+](=O)[O-])s1 [Compound 6-10, N-(5-bromo-4-(4-bromophenyl)thiazol-2-yl)-5-nitrothiophene-2-carboxamide]",,50%
"O=C(Nc1nc(-c2ccccc2[N+](=O)[O-])cs1)c1ccc([N+](=O)[O-])s1 [Compound 6-11, 5-nitro-N-(4-(2-nitrophenyl)thiazol-2-yl)thiophene-2-carboxamide]",,62%
"O=C(Nc1nc(-c2ccccc2[N+](=O)[O-])c(Br)s1)c1ccc([N+](=O)[O-])s1 [Compound 6-12, N-(5-bromo-4-(2-nitrophenyl)thiazol-2-yl)-5-nitrothiophene-2-carboxamide]",,67%
"O=C(Nc1nc(-c2cccc([N+](=O)[O-])c2)c(Br)s1)c1ccc([N+](=O)[O-])s1 [Compound 6-13, N-(5-bromo-4-(3-nitrophenyl)thiazol-2-yl)-5-nitrothiophene-2-carboxamide]",,81%
"COc1cccc(-c2nc(NC(=O)c3ccc([N+](=O)[O-])s3)sc2Br)c1 [Compound 6-14, N-(5-bromo-4-(3-methoxyphenyl)thiazol-2-yl)-5-nitrothiophene-2-carboxamide]",,83%
"CCOc1ccc(-c2nc(NC(=O)c3ccc([N+](=O)[O-])s3)sc2-c2ccc(F)cc2)cc1 [Compound 6-15, N-(4-(4-ethoxyphenyl)-5-(4-fluorophenyl)thiazol-2-yl)-5-nitrothiophene-2-carboxamide]",,64%
"CCOc1ccc(-c2nc(NC(=O)c3ccc([N+](=O)[O-])s3)sc2Br)cc1 [Compound 6-17, N-(5-bromo-4-(4-ethoxyphenyl)thiazol-2-yl)-5-nitrothiophene-2-carboxamide]",,53%
"CCOc1ccc(-c2nc(NC(=O)c3ccc([N+](=O)[O-])s3)sc2-c2ccc(C(F)(F)F)cc2)cc1 [Compound 6-19, N-(4-(4-ethoxyphenyl)-5-(4-(trifluoromethyl)phenyl)thiazol-2-yl)-5-nitrothiophene-2-carboxamide]",,26%
"CCOc1cc(-c2sc(NC(=O)c3ccc([N+](=O)[O-])s3)nc2-c2ccc(C)cc2)ccc1Br [Compound 6-20, N-(5-(4-bromo-3-ethoxyphenyl)-4-(p-tolyl)thiazol-2-yl)-5-nitrothiophene-2-carboxamide]",,45%
"CCCOc1ccc(-c2nc(NC(=O)c3ccc([N+](=O)[O-])s3)sc2N2CCN(C)CC2)cc1 [Compound 6-22, N-(5-(4-methylpiperazin-1-yl)-4-(4-propoxyphenyl)thiazol-2-yl)-5-nitrothiophene-2-carboxamide]",,29%
"CCCOc1ccc(-c2nc(NC(=O)c3ccc([N+](=O)[O-])s3)sc2C(=O)OCC)cc1 [Compound 6-23, ethyl 2-(5-nitrothiophene-2-carboxamido)-4-(4-propoxyphenyl)thiazole-5-carboxylate]",,33%
"CCOc1ccc(-c2nc(NC(=O)c3ccc([N+](=O)[O-])s3)sc2C(=O)Nc2cc(F)cc(F)c2)cc1 [Compound 6-27, N-(3,5-difluorophenyl)-4-(4-ethoxyphenyl)-2-(5-nitrothiophene-2-carboxamido)thiazole-5-carboxamide]",,36%
"CCOc1ccc(-c2nc(NC(=O)c3ccc([N+](=O)[O-])s3)sc2N(C)c2ccccc2)cc1 [Compound 6-28, N-(4-(4-ethoxyphenyl)-5-(methyl (phenyl)amino)thiazol-2-yl)-5-nitrothiophene-2-carboxamide]",,31%
"CCCOc1ccc(-c2nc(NC(=O)c3ccc([N+](=O)[O-])s3)sc2C(=O)N2CCOCC2)cc1 [Compound 6-29, N-(5-(morpholine-4-carbonyl)-4-(4-propoxyphenyl)thiazol-2-yl)-5-nitrothiophene-2-carboxamide]",,58%
"CCCOc1ccc(-c2nc(NC(=O)c3ccc([N+](=O)[O-])s3)sc2C(=O)N2CCN(C)CC2)cc1 [Compound 6-30, N-(5-(4-methylpiperazine-1-carbonyl)-4-(4-propoxyphenyl)thiazol-2-yl)-5-nitrothiophene-2-carboxamide]",,58%
"CCCOc1ccc(-c2nc(NC(=O)c3ccc([N+](=O)[O-])s3)sc2C(=O)Nc2ccc(F)cc2F)cc1 [Compound 6-31, N-(2,4-difluorophenyl)-2-(5-nitrothiophene-2-carboxamido)-4-(4-propoxyphenyl)thiazole-5-carboxamide]",,61%
"Cc1ccc(-c2nc(NC(=O)c3ccc([N+](=O)[O-])o3)sc2-c2ccc(Br)cc2)cc1 [Compound 6-32, N-(5-(4-bromophenyl)-4-(p-tolyl)thiazol-2-yl)-5-nitrofuran-2-carboxamide]",,27%
"CCOc1ccc(-c2nc(NC(=O)c3ccc([N+](=O)[O-])o3)sc2Cc2ccccc2)cc1 [Compound 6-33, N-(5-benzyl-4-(4-ethoxyphenyl)thiazol-2-yl)-5-nitrofuran-2-carboxamide]",,27%

# From patent publication US11174253B2, “Compound and pharmaceutical composition containing the same” (ALPHALA CO., LTD., priority 2017, dated 2021)
